Experimental data published in patent publication US7695930B2, “Method for the detection, identification and/or quantification of microoganisms with peptidase activity using phenoxazinone derivatives as enzyme substrates” (Biomerieux, priority 2003, dated 2010).

Columns and labels:
Assay type in all cases: cell-based
[1] = test system: Serratia liquefaciens; assay: Alanyl-peptidase detection on agar medium (Example 13); conditions: 25 mg/l
Description: (§1) The detection media were prepared by mixing 3.6 g of biogelytone (bioMérieux), 2.16 g of meat extract (bioMérieux), 1.26 g of malt extract (bioMérieux), 5.76 g of NaCl (Merck) and 10.8 g of agar (bioMérieux).
(§2) 720 ml of osmosed water were added to the powder, and the mixture was then melted in a waterbath at […]. The product was separated into two flasks, each of 360 ml. Autoclaving was carried out at 121° C. for 15 min and the product was cooled to […]. in a waterbath.
(§3) L-Alanyl-7-amino-4-methylcoumarin (Ala-AMC, Bachem) was then added to the first flask as a control, at the final concentration of 50 mg/l, and L-alanyl-9-aminobenzo[a]phenoxazin-5-one (Ala-ABP, substrate of the invention obtained in Example 2, in which the amino acid is L-alanine), was then added to the second flask at the final concentration of 25 mg/l.
(§4) The size of the colonies, their coloration and also the intensity of this coloration were noted.

[2] = test system: Escherichia coli; assay: as above; conditions: 25 mg/l
Description: as §1, §2, §3, §4

[3] = test system: Enterococcus faecalis; assay: as above; conditions: 25 mg/l
Description: as §1, §2, §3, §4

[4] = test system: Listeria innocua; assay: as above; conditions: 25 mg/l
Description: as §1, §2, §3, §4

[5] = test system: Streptococcus agalactiae; assay: as above; conditions: 25 mg/l
Description: as §1, §2, §3, §4

[6] = test system: Candida krusei; assay: as above; conditions: 25 mg/l
Description: as §1, §2, §3, §4

[7] = test system: Bacillus subtilis; assay: as above; conditions: 25 mg/l
Description: as §1, §2, §3, §4

[8] = test system: Staphylococcus epidermidis; assay: as above; conditions: 25 mg/l
Description: as §1, §2, §3, §4

[9] = test system: Edwardsiella tarda; assay: as above; conditions: 25 mg/l
Description: as §1, §2, §3, §4

[10] = test system: Proteus mirabilis; assay: as above; conditions: 25 mg/l
Description: as §1, §2, §3, §4

[11] = test system: Corynebacterium Pseudodiphteriticum; assay: as above; conditions: 25 mg/l
Description: as §1, §2, §3, §4

[12] = test system: Streptococcus pyogenes; assay: as above; conditions: 25 mg/l
Description: as §1, §2, §3, §4

[13] = test system: Klebsiella pneumoniae; assay: as above; conditions: 25 mg/l
Description: as §1, §2, §3, §4

[14] = test system: Candida albicans; assay: as above; conditions: 25 mg/l
Description: as §1, §2, §3, §4

[15] = test system: Staphylococcus saprophyticus; assay: as above; conditions: 25 mg/l
Description: as §1, §2, §3, §4

[16] = test system: Salmonella typhimurium; assay: as above; conditions: 25 mg/l
Description: as §1, §2, §3, §4

[17] = test system: Candida glabrata; assay: as above; conditions: 25 mg/l
Description: as §1, §2, §3, §4

[18] = test system: Acinetobacter baumannii (ATCC 19606); assay: Alanine peptidase detection, substrates with one to three amino acids (Example 15); set-up: key to color of the colony: R=pink; RP=pale pink; I=colorless; conditions: 50 mg/l
Description: (§5) 1000 ml of Columbia medium was melted in a waterbath at 100° C. and autoclaved at 121° C. for 15 min. It was then cooled to 50° C. in a waterbath.
(§6) This medium was separated into 5 flasks of 200 ml, and then, added at 50° C., as substrates, was that of Example 2 for which A is: • medium 1: L-alanine (L-alanine-9-aminobenzo[a]phenoxazin-5-one or A-ABP), • medium 2: L-alanine-L-alanine (L-alanine-L-alanine-9-aminobenzo-[a]phenoxazin-5-one or AA-ABP), • medium 3: L-alanine-L-alanine-L-alanine (L-alanine-L-alanine-L-alanine-9-aminobenzo[a]phenoxazin-5-one or AAA-ABP), • medium 4: L-alanine-glycine (L-alanine-glycine-9-aminobenzo[a]phenoxazin-5-one or AG-ABP), and • medium 5: glycine-L-alanine (glycine-L-alanine-9-aminobenzo[a]phenoxazin-5-one or GA-ABP), each substrate being solubilized in DMSO and used at a final concentration of 50 mg/l.
(§7) The medium was then poured into Petri dishes.
(§8) Nine microorganism strains derived from the Applicant's collection, suspended in physiological saline, were seeded in colonies on the media prepared in point 15.1 above according to a multipoint inoculation in a proportion of 15 000 cfu/spot. The dishes were incubated at 37° C. for 48 hours. The colonies formed were examined visually after incubation for 24 and 48 hours.
(§9) The results are expressed in Tables 7 and 8 hereinafter according to the rules and the nomenclature stated in paragraph 11.3 and where R=pink, RP=pale pink and I=colorless.

[19] = test system: Escherichia coli (NCTC 10418); assay: as above; set-up: key to color of the colony: R=pink; RP=pale pink; I=colorless; conditions: 50 mg/l
Description: as §5, §6, §7, §8, §9

[20] = test system: Listeria monocytogenes (NCTC 11994); assay: as above; set-up: key to color of the colony: R=pink; RP=pale pink; I=colorless; conditions: 50 mg/l
Description: as §5, §6, §7, §8, §9

“L-alanyl-9-aminobenzo[a]phenoxazin-5-one [Ala-ABP]” was tested, and the “color of the colony” value ([1]; 24 h) was “R”, the growth diameter ([1]; 24 h) was 0.7 mm and the “intensity of coloration, scale 0 to 4” value ([1]; 24 h) was 3. The “color of the colony” value ([1]; 48 h) was “R”, the growth diameter ([1]; 48 h) was 1.3 mm and the “intensity of coloration, scale 0 to 4” value ([1]; 48 h) was 3. The “color of the colony” value ([2]; 24 h) was “R”, the growth diameter ([2]; 24 h) was 1.7 mm and the “intensity of coloration, scale 0 to 4” value ([2]; 24 h) was 1. The “color of the colony” value ([2]; 48 h) was “R”, the growth diameter ([2]; 48 h) was 1.8 mm and the “intensity of coloration, scale 0 to 4” value ([2]; 48 h) was 1. For the same substance, the growth diameter ([3]; 24 h) was 0.3 mm, the growth diameter ([3]; 48 h) was 0.3 mm and the growth diameter ([4]; 24 h) was 0.2 mm. For the same substance, the growth diameter ([4]; 48 h) was 0.3 mm, the growth diameter ([5]; 24 h) was 0.1 mm and the growth diameter ([5]; 48 h) was 0.2 mm. The growth diameter ([6]; 24 h) was 0.5 mm, the growth diameter ([6]; 48 h) was 1 mm and the growth diameter ([7]; 24 h) was 0.1 mm. The growth diameter ([7]; 48 h) was 0.5 mm, the growth diameter ([8]; 24 h) was 0.1 mm and the growth diameter ([8]; 48 h) was 0.1 mm. The “color of the colony” value ([9]; 24 h) was “R”, the growth diameter ([9]; 24 h) was 0.5 mm and the “intensity of coloration, scale 0 to 4” value ([9]; 24 h) was 1. For the same substance, the “color of the colony” value ([9]; 48 h) was “R”, the growth diameter ([9]; 48 h) was 0.7 mm and the “intensity of coloration, scale 0 to 4” value ([9]; 48 h) was 3. For the same substance, the “color of the colony” value ([10]; 24 h) was “R”, the growth diameter ([10]; 24 h) was 1.7 mm and the “intensity of coloration, scale 0 to 4” value ([10]; 24 h) was 0.5. For the same substance, the “color of the colony” value ([10]; 48 h) was “R”, the growth diameter ([10]; 48 h) was 1.7 mm and the “intensity of coloration, scale 0 to 4” value ([10]; 48 h) was 1.5. It also gave a growth diameter ([11]; 24 h) of 0 mm, a growth diameter ([11]; 48 h) of 0 mm and a growth diameter ([12]; 24 h) of 0.1 mm. The growth diameter ([12]; 48 h) was 0.2 mm, the “color of the colony” value ([13]; 24 h) was “R” and the growth diameter ([13]; 24 h) was 1 mm. The “intensity of coloration, scale 0 to 4” value ([13]; 24 h) was 3, the “color of the colony” value ([13]; 48 h) was “R” and the growth diameter ([13]; 48 h) was 1.5 mm. The “intensity of coloration, scale 0 to 4” value ([13]; 48 h) was 3, the growth diameter ([14]; 24 h) was 0.3 mm and the “color of the colony” value ([14]; 48 h) was “R”. The growth diameter ([14]; 48 h) was 0.5 mm, the “intensity of coloration, scale 0 to 4” value ([14]; 48 h) was 2 and the growth diameter ([15]; 24 h) was 0.1 mm. For the same substance, the growth diameter ([15]; 48 h) was 0.3 mm, the “color of the colony” value ([16]; 24 h) was “R” and the growth diameter ([16]; 24 h) was 1 mm. The “intensity of coloration, scale 0 to 4” value ([16]; 24 h) was 0.5, the “color of the colony” value ([16]; 48 h) was “R” and the growth diameter ([16]; 48 h) was 1.5 mm. For the same substance, the “intensity of coloration, scale 0 to 4” value ([16]; 48 h) was 1, the growth diameter ([17]; 24 h) was 0.1 mm and the growth diameter ([17]; 48 h) was 0.3 mm. The “color of the colony” value ([18]; 24 h) was “R”, the growth diameter ([18]; 24 h) was 3 mm and the “color of the colony” value ([18]; 48 h) was “R”. For the same substance, the growth diameter ([18]; 48 h) was 3 mm, the “color of the colony” value ([19]; 24 h) was “R” and the growth diameter ([19]; 24 h) was 3 mm. The “color of the colony” value ([19]; 48 h) was “R”, the growth diameter ([19]; 48 h) was 3 mm and the “color of the colony” value ([20]; 24 h) was “I”. For the same substance, the growth diameter ([20]; 24 h) was 2 mm, the “color of the colony” value ([20]; 48 h) was “R” and the growth diameter ([20]; 48 h) was 2 mm.
